Experiment [1] deals with internal anal sphincter (IAS) smooth muscle. Put plainly: NANC nerve-mediated relaxation of IAS smooth muscle strips by electrical field stimulation. On the set-up: species or system opossum (Didelphis virginiana). Conditions: for decrease in basal IAS tension after ABHA: 1×10^−4 molar. From the text: The entire anal canal was isolated carefully by dissection and transferred to a dissecting tray containing oxygenated (95% O2 plus 5% CO2) Krebs' solution. The composition of the Krebs' solution was as follows (in millimolar): NaCl, 118.07; KCl 4.69; […] MgSO4, 1.16; […] NaHCO3, 25 and glucose (Pufahl et al., 1995, Biochemistry 34:1930-1941; […] et al., 1993, Biochem. Biophys. Res. Commun. 196:1558-1565). The anal canal was cleaned of extraneous connective tissue and blood vessels. Following this, the anal canal was opened by making an incision along the longitudinal axis, and was pinned flat with the mucosal side facing up. The mucosa and submucosa were removed by sharp dissection. Circular smooth muscle strips were obtained from the whole circumference of the anal canal and divided into two equal strips (about 1×8 millimeters). Both ends of the muscle strips were secured with silk sutures (4-0: Ethicon Inc., Sommerville, N.J.) and used for the measurement of isometric tension. […] One end of each muscle strip was fixed to the bottom of the muscle bath with a tissue holder and the other end was attached to an isometric force transducer (model FT03; Grass Instruments Co., Quincy, Mass.) in order to measure isometric tension. Smooth muscle tension was recorded using a […] recorder (model […]; Beckman Instruments, Schiller Park, Ill.). […] J. Physiol. 255:[…]-[…]). Only those smooth muscle strips that developed spontaneous and steady tension and relaxed in response to electrical field stimulation (EFS) were used. EFS was delivered, via a pair of platinum wires, from a Grass stimulator (Model S88; Grass Instruments Co., Quincy, Mass.) connected in series to a Med-Lab […] (Med-Lab Instruments, Loveland, Colo.). […] These parameters of EFS are known to cause relaxation of IAS smooth muscle by selective activation of NANC myenteric neurons. Neurally-mediated relaxation of IAS smooth muscle strips was quantified in response to different frequencies of EFS. […] To determine the influence of arginase on NANC nerve-mediated relaxation of IAS, the effects of different doses of arginase on relaxation were first determined. […] The effectiveness of arginase inhibitors (L-OH-Arg and ABHA) on arginase-induced attenuation of EFS-induced IAS relaxation was then tested. Optimal doses of arginase and L-OH-Arg in IAS have been reported ([…] and […]. Pharmacol. Exp. Ther. 282:378-384). In order to determine the selectivity of arginase inhibitors in IAS, their effects on IAS relaxation suppressed by the NO synthase inhibitor L-NNA ([…]) were tested. […] To examine the physiological relevance of arginase inhibitors in IAS relaxation, the influence of selected concentrations of arginase inhibitors on EFS-induced IAS relaxation was examined. […] Each smooth muscle strip served as its own control. […] The results are expressed as means±standard error.

For another experiment, the target named is T1, NO synthase (Homo sapiens, UniProt P29475).
T1 construct: purchased Biomol
Put plainly: Nitric Oxide Synthase-ABHA assay (NO2-/NO3- production). Format: biochemical. To be noted: 0.1 millimolar or 1.0 millimolar ABHA. From the text: NADPH, FAD, FMN, L-arginine, N-(2-hydroxyethyl)piperazine-N-2-ethanesulfonic acid (HEPES) (6R)-5,6,7,8-tetrahydro-L-biopterin (BH4), aminoguanidine, CaCl2, and phosphodiesterase cyclic nucleotide activator (calmodulin) were purchased from Sigma Chemical Company (St. Louis, Mo.). Neuronal NO synthase was purchased from Biomol, dialyzed to remove beta-mercaptoethanol, and concentrated to 0.1 milligram per milliliter. The nitric oxide synthase colorimetric assay kit was purchased from Calbiochem. Materials were used without further purification. The effect of ABHA on NO synthesis was assayed by monitoring the sum of NO2^− and NO3^− production, as described (Verdon et al., 1995, Anal. Biochem. 224:502-508). The enzyme solution was shaken at 37° C. for 15 minutes with 50 millimolar HEPES (pH 7.5), 100 micromolar NADPH, 4 micromolar FAD, 4 micromolar FMN, 6 micromolar BH4, 100 micromolar L-arginine, 0.0-1.0 millimolar ABHA, and 0.02 milligram per milliliter NO synthase in a final volume of 100 microliters. For experiments in which neuronal NO synthase was used, 1 millimolar CaCl2 and 100 micrograms per milliliter calmodulin were also added. Reactions were stopped by incubating the reaction mixture at 100° C. for 3 minutes. […] Absorbance at 540 nanometers was used to quantify the extent of NOx production.

This note sets out measurements from patent US6723710B2, “Compositions for inhibiting arginase activity” (The Trustees of the University of Pennsylvania, priority 1997, dated 2004).

Molecules are shown by their SMILES. “Also recorded” adds a separate entry of the source.

T1 sequence (P29475 whole entry): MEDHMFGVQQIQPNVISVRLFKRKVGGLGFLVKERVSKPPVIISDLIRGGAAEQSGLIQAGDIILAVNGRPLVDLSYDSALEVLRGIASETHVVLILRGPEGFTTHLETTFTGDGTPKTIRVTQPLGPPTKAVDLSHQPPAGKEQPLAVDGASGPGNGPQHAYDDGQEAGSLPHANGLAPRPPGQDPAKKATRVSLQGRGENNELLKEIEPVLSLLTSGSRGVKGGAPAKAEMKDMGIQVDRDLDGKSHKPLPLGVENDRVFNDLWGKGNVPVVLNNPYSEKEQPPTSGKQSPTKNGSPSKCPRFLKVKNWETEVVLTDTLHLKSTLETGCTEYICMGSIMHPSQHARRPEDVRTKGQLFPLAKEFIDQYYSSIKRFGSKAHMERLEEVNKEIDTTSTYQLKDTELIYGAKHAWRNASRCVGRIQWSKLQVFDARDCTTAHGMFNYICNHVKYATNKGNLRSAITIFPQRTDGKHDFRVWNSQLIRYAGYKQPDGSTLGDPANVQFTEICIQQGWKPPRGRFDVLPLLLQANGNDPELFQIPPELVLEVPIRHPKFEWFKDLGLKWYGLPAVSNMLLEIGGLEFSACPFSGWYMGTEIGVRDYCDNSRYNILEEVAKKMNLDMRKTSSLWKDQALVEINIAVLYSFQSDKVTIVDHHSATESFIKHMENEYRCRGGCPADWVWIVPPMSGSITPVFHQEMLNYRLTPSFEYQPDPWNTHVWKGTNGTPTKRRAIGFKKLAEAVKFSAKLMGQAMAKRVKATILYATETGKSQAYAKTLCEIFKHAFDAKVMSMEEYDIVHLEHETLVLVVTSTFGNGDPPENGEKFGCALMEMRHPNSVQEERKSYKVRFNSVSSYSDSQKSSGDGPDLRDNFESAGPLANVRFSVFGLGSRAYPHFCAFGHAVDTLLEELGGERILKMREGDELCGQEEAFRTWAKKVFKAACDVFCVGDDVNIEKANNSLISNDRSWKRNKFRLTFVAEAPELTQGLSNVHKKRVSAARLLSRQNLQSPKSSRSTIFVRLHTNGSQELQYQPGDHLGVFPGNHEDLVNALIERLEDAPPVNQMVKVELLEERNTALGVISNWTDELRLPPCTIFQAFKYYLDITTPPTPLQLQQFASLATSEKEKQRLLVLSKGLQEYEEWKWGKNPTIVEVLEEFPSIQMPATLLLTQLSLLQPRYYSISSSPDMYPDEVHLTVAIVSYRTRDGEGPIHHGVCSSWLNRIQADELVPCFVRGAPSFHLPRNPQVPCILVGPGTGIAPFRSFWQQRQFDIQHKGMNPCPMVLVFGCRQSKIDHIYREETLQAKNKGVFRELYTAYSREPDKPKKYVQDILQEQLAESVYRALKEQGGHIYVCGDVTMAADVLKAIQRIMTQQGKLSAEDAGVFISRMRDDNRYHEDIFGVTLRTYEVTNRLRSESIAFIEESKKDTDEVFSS

As to `N[C@@H](CCCCB(O)O)C(=O)O` [compound 7, 2(S)-amino-6-boronohexanoic acid], the entries for the “decrease in basal IAS tension after ABHA” value in experiment [1] (0.5 Hertz EFS) and in experiment [1] (1 Hertz EFS) were 56.5±7.0% and 73.6±3.5%, respectively. In experiment [1] (exogenous arginase, L-HO-Arg 1×10^−4 molar, listed as ABHA), the “effect on arginase-suppressed EFS-induced IAS relaxation” value is listed as “reversal”. Besides, the “augmentation of NANC nerve-mediated IAS relaxation by EFS” value in experiment [1] (lower frequencies of EFS, listed as ABHA) was “significant and concentration-dependent augmentation”. Also, the “reversal of L-NNA-suppressed IAS relaxation” value in experiment [1] (with L-NNA, L-HO-Arg and ABHA 3×10^−4 molar) is listed as “did not cause any reversal; also recorded: no effect”. For the same compound, on NO synthase, the “inhibition of NO synthase” value is “does not inhibit NO synthase; also recorded: no inhibition”.
